Test results published in US8779144B2, “Bicycloheteroaryl compounds as P2X7 modulators and uses thereof” (Evotec (US) Inc., priority 2006, dated 2014).

How the values were obtained:
[1] = tested on: IL-1β release from THP-1 cells; experiment: IL-1β release assay in differentiated THP-1 cells stimulated with BzATP (ELISA); type: cell-based; conditions: Homo sapiens; for inhibition at 0.3 µM: 0.3 uM compound, BzATP 250 uM, read-out: IL-1β % Inhib. @ 0.3 uM.; for IC50: released IL-1β as in Example 9, four parameter logistic fit, read-out: IL-Iβ IC50
Procedure: THP-1 cells (ATCC Cat #285-IF-100) are plated in 96 well plates at a concentration of 200,000 cells per well and allowed to differentiate in RPMI-1640 media (ATCC Cat #30-2001) containing 10% FBS, 100 IU/mL penicillin, 100 ug/mL streptomycin, 100 ng/mL LPS and 100 ng/mL IFN-γ for 16 hours. Following differentiation, the cells are treated for an additional 2 hours in RPMI-1640 media containing 100 IU/mL penicillin, 100 ug/mL streptomycin and fresh LPS at 100 ng/mL. The cells are then pretreated for 30 minutes with the compound of interest at the appropriate concentration in RPMI media containing 100 IU/mL penicillin, 100 ug/mL streptomycin. Following the pretreatment 2′,3′-O-(4-benzoylbenzoyl)-adenosine 5′-triphosphate (Sigma Aldrich Cat # B6396) is added to a final concentration of 250 uM and the cells are incubated for an additional 45 minutes. 30 uL of cell supernatant is then collected and IL-113 levels determined via ELISA (R&D systems Cat. # HSLB50) according to manufacturer's recommendations using the Tecan Safire plate reader. Background adjusted IL-1β levels of drug treated and non-treated cells are used to calculate the percent inhibition. […]
The compounds set forth in Table 1 were tested for activity in a cellular model as described herein. Specifically, cells were pretreated with differing amounts of the compound under test and released IL-1β determined as in Example 9, above. Measurements were made and IC50 values, presented in Table 2, below, were determined by fitting the data to a four parameter logistic equation using GraphPad Prism software (GraphPad Software, Inc). The equation may be expressed by the following formula: Y=Bottom+(Top−Bottom)/(1+10^((LogEC50−X)*HillSlope)) Where X is the logarithm of concentration, Y is the response and Y starts at Bottom and goes to Top with a sigmoid shape.

[2] = Half-life in human liver microsomes (HLM); type: in vitro ADME; conditions: 1 μM compound, 0.78 mg/mL HLM, NADPH, pH 7.4, 37° C.
Procedure: Test compounds (1 μM) are incubated with 3.3 mM MgCl2 and 0.78 mg/mL HLM (HL101) in 100 mM potassium phosphate buffer (pH 7.4) at 37° C. on the 96-deep well plate. The reaction mixture is split into two groups, a non-P450 and a P450 group. NADPH is only added to the reaction mixture of the P450 group. An aliquot of samples of P450 group is collected at 0, 10, 30, and 60 min time point, where 0 min time point indicated the time when NADPH is added into the reaction mixture of P450 group. An aliquot of samples of non-P450 group is collected at −10 and 65 min time point. Collected aliquots are extracted with acetonitrile solution containing an internal standard. The precipitated protein is spun down in centrifuge (2000 rpm, 15 min). The compound concentration in supernatant is measured by LC/MS/MS system.
The half-life value is obtained by plotting the natural logarithm of the peak area ratio of compounds/internal standard versus time. The slope of the line of best fit through the points yields the rate of metabolism (k). This is converted to a half-life value using following equations: Half-life=ln 2/k

Compound | IC50 [1] [nM] | half-life at 1 μM [2] [min] | inhibition at 0.3 µM [1] [%]
Cn1ccc2c(C(=O)NCC3(O)CCCCCC3)cccc2c1=O [Compound 2032] | 48.6 | 22.8 | > 76
CC(C)C(CO)n1ccc2c(C(=O)NCC3(O)CCCCCC3)cccc2c1=O (centres unmarked) [Compound 2035, 2-(1-Hydroxymethyl-2-methyl-propyl)-1-oxo-1,2-dihydro-isoquinoline-5-carboxylic acid (1-hydroxy-cycloheptylmethyl)-amide] | 5.66 | 38.4 | > 76
O=C(NCC1(O)CCCCCC1)c1cccc2c(=O)n(C(CO)CO)ccc12 [Compound 2047] | 573 | 31.8 | 26 to 50
O=C(NCC12CC3CC(CC(C3)C1)C2)c1cccc2c(=O)[nH]ccc12 [Compound 2028, 1-Oxo-1,2-dihydro-isoquinoline-5-carboxylic acid (adamantan-1-ylmethyl)-amide] | 0.73 | 18.6 | > 76
O=C(NCC1(O)CCCCCC1)c1cccc2c(=O)[nH]ccc12 [Compound 2030] | 79 | 23.4 | 51 to 75
O=C(NCC1(O)CCCCCC1)c1cccc2c(=O)n(Cc3ccc4c(c3)OCCO4)ccc12 [Compound 2033, 2-(2,3-Dihydro-benzo[1,4]dioxin-6-ylmethyl)-1-oxo-1,2-dihydro-isoquinoline-5-carboxylic acid (1-hydroxy-cycloheptylmethyl)-amide] | 1.37 | 13.8 | > 76
O=C(NCC1CCCCCC1)c1cccc2c(=O)n(CCO)ccc12 [Compound 2041, 2-(2-Hydroxy-ethyl)-1-oxo-1,2-dihydro-isoquinoline-5-carboxylic acid cycloheptylmethyl-amide] | 54 | 18 | > 76
COc1ccc(CN2CCc3c(ncnc3C(=O)NCC3CCCCC3)C2)cc1 [Compound 2012] | – | – | 0 to 25
Cc1ccc(C2(CNC(=O)c3ncnc4c3CCN(Cc3ccccc3)C4)CCCCC2)cc1 [Compound 2018] | – | – | 0 to 25
CC1(C)CCCC(O)(CNC(=O)c2cccc3c(=O)n(C(CO)CO)ccc23)C1 (centres unmarked) [Compound 2043] | 23 | 38.4 | > 76
O=C(NCC1CCCCCC1)c1cccc2c(=O)n(C(CO)CO)ccc12 [Compound 2040] | 39.2 | 51 | > 76
O=C(NCC1(O)CCCCCC1)c1ncnc2c1CCN(Cc1ccccc1)C2 [Compound 2016] | – | – | 0 to 25
O=C(NCC1CCCCC1)c1ncnc2c1CCN(Cc1ccccc1Cl)C2 [Compound 2008] | – | – | 0 to 25
CC(=O)Nc1ccc(CN2CCc3c(ncnc3C(=O)NCC3CCCCC3)C2)cc1 [Compound 2015] | – | – | 0 to 25
CS(=O)(=O)c1ccc(CN2CCc3c(ncnc3C(=O)NCC3CCCCC3)C2)cc1 [Compound 2014] | – | – | 0 to 25
CC1(C)CCCC(O)(CNC(=O)c2ncnc3c2CCN(Cc2ccccc2)C3)C1 (centres unmarked) [Compound 2017] | – | – | 0 to 25
O=C(NCC1(O)CCCCCC1)c1cccc2c(=O)n(CCO)ccc12 [Compound 2048, 2-(2-Hydroxy-ethyl)-1-oxo-1,2-dihydro-isoquinoline-5-carboxylic acid (1-hydroxy-cycloheptylmethyl)-amide] | 326 | 42.6 | 26 to 50
O=C(NCC1(O)CCCCCC1)c1cccc2c(=O)n(CC3CCOCC3)ccc12 [Compound 2034] | 133 | 15.6 | 51 to 75
O=C(NCC1(O)CCCCCC1)c1cccc2c(=O)n(Cc3ccc(F)cc3)ccc12 [Compound 2031, 2-(4-Fluoro-benzyl)-1-oxo-1,2-dihydro-isoquinoline-5-carboxylic acid (1-hydroxy-cycloheptylmethyl)-amide] | 42 | – | > 76
CC1(C)OCC(Cn2ccc3c(C(=O)NCC4CCCCCC4)cccc3c2=O)O1 (centres unmarked) [Compound 2038] | 606 | – | 0 to 25

Second part, led by results:

IC50 [1] [nM] | half-life at 1 μM [2] [min] | Compound | inhibition at 0.3 µM [1] [%]
256 | – | CC1(C)CCCC(O)(CNC(=O)c2cccc3c(=O)n(CCO)ccc23)C1 (centres unmarked) [Compound 2051] | 51 to 75
122 | – | CC(C(N)=O)n1ccc2c(C(=O)NCC3CCCCC3)cccc2c1=O (centres unmarked) [Compound 2049] | > 76
17.3 | 66 | C[C@@H](C(N)=O)n1ccc2c(C(=O)NCC3CCCCCC3)cccc2c1=O [Compound 2063] | > 76
356 | – | Cc1ccc2c(c1C(=O)NCc1ccc(C(F)(F)F)c(F)c1)CCN(C(=O)C1CC1)C2 [Compound 2080] | 26 to 50
506 | – | C[C@@H](C(N)=O)n1ccc2c(C(=O)NCC3(O)CCCCCC3)cccc2c1=O [Compound 2056] | 26 to 50
0.15 | 19.2 | C[C@H](C(N)=O)n1ccc2c(C(=O)NCC34CC5CC(CC(C5)C3)C4)cccc2c1=O [Compound 2064, 2-((R)-1-Carbamoyl-ethyl)-1-oxo-1,2-dihydro-isoquinoline-5-carboxylic acid (adamantan-1-ylmethyl)-amide] | > 76
694 | – | O=C(NCC1CCCCC1)c1cccc2c(=O)n(CCO)ccc12 [Compound 2052] | 0 to 25
0.44 | – | C[C@@H](C(N)=O)n1ccc2c(C(=O)NCC34CC5CC(CC(C5)C3)C4)cccc2c1=O [Compound 2065, 2-((S)-1-Carbamoyl-ethyl)-1-oxo-1,2-dihydro-isoquinoline-5-carboxylic acid (adamantan-1-ylmethyl)-amide] | > 76
7.46 | 36 | C[C@H](C(N)=O)n1ccc2c(C(=O)NCC3CCCCCC3)cccc2c1=O [Compound 2062] | > 76
